Literature values, collected in patent publication US20080004295A1, “NOVEL COMPOUNDS” (priority 2005, published 2008).

Tests used:
[1] = phase II clinical trial, allergic rhinitis
PGD2 = conditions: dosed intranasally, phase I/II study, allergic rhinitis

In the case of `Oc1cccc(Nc2ncc(F)c(Nc3cccc(O)c3)n2)c1` [Example R112], the efficacy versus placebo [1] is given as “lack of efficacy”, the “change in PGD2” value (PGD2) is given as “statistically significant decrease” and the “safety across a range of indicators” value (PGD2) is given as “safe”.
